Test system: HCV
Assay: Yield of HCV (HCV RNA level) in culture supernatant of HCV cDNA-introduced IMY42-5 cells, real-time detection RT-PCR
Assay type: cell-based, hepatitis C virus
Conditions: ribavirin 0, 25, 50, 100, 200 μM added simultaneously with Tam, cultured for 2 days (FIG. 10)
Method: IMY42-5 cells were prepared by incorporating into IMY-N9 cells, pCALN/HCV RBZ and CAG-Mer-Cre-Mer (Nucleic Acids Res., 1996, 24(4), 543-548) that expresses active Cre recombinant enzyme by adding tamoxifen co-expressed constitutively therein. When tamoxifen acts on the cells, the stuffer region of pCALN/HCV RBZ was looped out and HCV cDNA was expressed.
IMY42-5 cells (2.5×10^5/ml) were inoculated, 100 μl/well in a 96-well plate, and then cultured overnight at 37° C. under 5% CO2 atmosphere. Then 4-hydroxi-tamoxifen (Tam) was added at a concentration of 100 nM. On the next day and 3 days after the addition of Tam, the culture supernatant was collected. RNA in the culture supernatant was extracted using ISOGEN-LS (Wako Pure Chemical Industries, Ltd.), and then HCV RNA levels were quantified by the Real-time detection RT-PCR (Takeuchi T. et al; Gastroenterology 1999; 116: 636-642) method.
CsA (100, 10, 1 and 0 nM) was added simultaneously with the addition of Tam to IMY42-5 cells. The cells were cultured for 3 days, and then HCV RNA levels in the culture supernatant was measured by Real-time detection RT-PCR.
Ribavirin (0, 25, 50, 100, 200 μM) was added simultaneously with the addition of Tam to IMY42-5 cells. The cells were cultured for 2 days, and then HCV RNA levels in the culture supernatant were measured.

With `NC(=O)c1ncn([C@@H]2O[C@H](CO)[C@@H](O)[C@H]2O)n1` [Ribavirin, ribavirin] the “HCV RNA levels in the culture supernatant (yield of virus)” value was “no decrease”.
